Some results are limits rather than exact numbers.

Assay [1] in a line: Inhibition of microtubule depolymerization in rat A10 cells after 18 hrs by immunofluorescence assay. The format is cell-based.
Assay [2] can be described thus: Antiproliferative activity against human MDA-MB-435 cells by SRB assay. Background: In SRB staining, fixed cells bind dye roughly in proportion to their protein.
The subject of another assay is A10. Put plainly: Inhibition of microtubule depolymerization in rat A10 cells at 75 uM after 18 hrs by immunofluorescence assay. The format is cell-based.

Turning to `CCOC(=O)c1[nH]c(Br)c(-c2ccc(C)cc2)c1Br`, in assay [1], the EC50 is more than 75 µM and the pEC50 came out at 3.82. The same compound had an IC50 in assay [2] of 2.24 µM.

For the compound `CCOC(=O)c1[nH]c(Br)c(-c2ccc(Br)cc2)c1Br`, in the assay with A10, the inhibition stood at 40%. Also, in assay [1], the EC50 was 94 µM and the pEC50 came to 4.03.

In assay [1], `CCOC(=O)c1[nH]c(Br)c(-c2ccc(OC)cc2)c1Br` returned an EC50 of 7 µM and a pEC50 of 5.15.

In assay [1], `CCOC(=O)c1[nH]c(Br)c(-c2ccccc2)c1Br` had an EC50 of more than 75 µM and a pEC50 of 3.82. The compound further gave an IC50 in assay [2] of 10.3 µM.

In assay [1], `CCOC(=O)c1[nH]c(Br)c(-c2ccc3cc(OCC)ccc3c2)c1Br` gave an EC50 of more than 75 µM and a pEC50 of 3.82. Further, 1.99 µM corresponded to half-maximal inhibition in assay [2] (IC50).

In assay [1], `CCOC(=O)c1[nH]c(Br)c(-c2cccc(OC)c2)c1Br` showed an EC50 of 2.4 µM and a negative logarithm of the EC50 (pEC50) of 5.62.

Regarding `CCOC(=O)c1[nH]c(Br)c(-c2ccc(OC(F)(F)F)cc2)c1Br`, in assay [1], it took 27.1 µM to reach a half-maximal effect (EC50) and the pEC50 is reported as 4.57.

Take `CCOC(=O)c1[nH]c(Br)c(-c2ccc3c(c2)OCCO3)c1Br`: in assay [1], the EC50 worked out at 20.9 µM and the pEC50 is reported as 4.68. The compound also returned an IC50 in assay [2] of 4.36 µM.

In assay [1], `CCOC(=O)c1[nH]c(Br)c(-c2c[nH]c3ccccc23)c1Br` came in with an EC50 of 17.8 µM and a pEC50 of 4.75. The compound also yielded an IC50 in assay [2] of 1.98 µM.

In assay [1], `CCOC(=O)c1[nH]c(Br)c(-c2cc(OC)c(OC)cc2Br)c1Br` showed an EC50 of 14 µM and a pEC50 of 4.85. Also, half-maximal inhibition in assay [2] (IC50) was put at 2.64 µM.

On to `CCOC(=O)c1[nH]c(Br)c(-c2ccc(OC)c(F)c2)c1Br`, for which, in assay [1], the EC50 was 14.1 µM and the pEC50 was 4.85.

For the compound `CCOC(=O)c1[nH]c(Br)c(-c2ccc(Cl)c(Cl)c2)c1Br`, in assay [1], the EC50 amounted to 9.9 µM and the pEC50 turned out to be 5.

Consider `CCOC(=O)c1[nH]c(Br)c(-c2cc(OC)c(OC)c(OC)c2)c1Br`, for which, in assay [1], the EC50 was more than 75 µM and the pEC50 came to 3.82. The IC50 in assay [2] amounted to 12.9 µM.

In assay [1], `CCOC(=O)c1[nH]c(Br)c(-c2ccc3c(c2)OCO3)c1Br` registered an EC50 of 29.7 µM and a pEC50 of 4.53.

`CCOC(=O)c1[nH]c(Br)c(-c2ccc(SC)cc2)c1Br`: in assay [1], the EC50 turned out to be 18.5 µM and the pEC50 is 4.73.

For `CCOC(=O)c1[nH]c(Br)c(-c2ccc(Cl)cc2)c1Br`, in assay [1], the EC50 is more than 75 µM and the pEC50 is on record as 3.82.

In assay [1], `CCOC(=O)c1[nH]c(Br)c(-c2cccc3ccccc23)c1Br` gave an EC50 of 7 µM and a pEC50 of 5.15. For the same compound, the IC50 in assay [2] amounted to 3.24 µM.

One may read the EC50 as the concentration at which the effect is half-maximal. A higher EC50 goes with a less potent agent. A word on the pEC50: it is the EC50 on a negative log10 scale, so that one unit is a factor of ten. Lower therefore signals a large EC50. Usually IC50 stands for the concentration needed to halve the response being measured. What is called inhibition is the drop in the measured response relative to a control, in per cent.
